Experimental data reported in patent US12077508B2, “Inhibitors of the Notch transcriptional activation complex kinase (“NACK”) and methods for use of the same” (UNIVERSITY OF MIAMI, priority 2018, dated 2024).

What was measured:
MAP4K5 = MAP4K5 (Homo sapiens, UniProt Q9Y4K4); test: ADP-Glo MAP4K5 kinase assay; type: biochemical; settings: FIG. 17A
Method: (§1) ADP-Glo kinase assay was performed using ADP-Glo™ Kinase Assay (Promega, V6930) according to the manufacture recommended protocol.

OE33 cells = test: Senescence-associated β-galactosidase assay; type: cell-based, human; settings: treatment for 3 weeks, FIG. 9B
Method: After prolonged Z271-0326 or DAPT treatment for 3 weeks of live cells of OE33, cells were measured by senescence-associated β-galaotosidase activity according to the manufacture recommended protocol (Senescence β-Galaotosidase Staining Kit, Cell Signaling, #9860).

NACK = molecular target: T1, NACK (Mus musculus, UniProt Q571I4); test: Surface plasmon resonance (SPR) binding to GST tagged NACK; settings: equilibrium approach, 1:1 binding model; 25° C.; FIG. 10A; read-out: KD
T1 sequence (Q571I4 1-1373): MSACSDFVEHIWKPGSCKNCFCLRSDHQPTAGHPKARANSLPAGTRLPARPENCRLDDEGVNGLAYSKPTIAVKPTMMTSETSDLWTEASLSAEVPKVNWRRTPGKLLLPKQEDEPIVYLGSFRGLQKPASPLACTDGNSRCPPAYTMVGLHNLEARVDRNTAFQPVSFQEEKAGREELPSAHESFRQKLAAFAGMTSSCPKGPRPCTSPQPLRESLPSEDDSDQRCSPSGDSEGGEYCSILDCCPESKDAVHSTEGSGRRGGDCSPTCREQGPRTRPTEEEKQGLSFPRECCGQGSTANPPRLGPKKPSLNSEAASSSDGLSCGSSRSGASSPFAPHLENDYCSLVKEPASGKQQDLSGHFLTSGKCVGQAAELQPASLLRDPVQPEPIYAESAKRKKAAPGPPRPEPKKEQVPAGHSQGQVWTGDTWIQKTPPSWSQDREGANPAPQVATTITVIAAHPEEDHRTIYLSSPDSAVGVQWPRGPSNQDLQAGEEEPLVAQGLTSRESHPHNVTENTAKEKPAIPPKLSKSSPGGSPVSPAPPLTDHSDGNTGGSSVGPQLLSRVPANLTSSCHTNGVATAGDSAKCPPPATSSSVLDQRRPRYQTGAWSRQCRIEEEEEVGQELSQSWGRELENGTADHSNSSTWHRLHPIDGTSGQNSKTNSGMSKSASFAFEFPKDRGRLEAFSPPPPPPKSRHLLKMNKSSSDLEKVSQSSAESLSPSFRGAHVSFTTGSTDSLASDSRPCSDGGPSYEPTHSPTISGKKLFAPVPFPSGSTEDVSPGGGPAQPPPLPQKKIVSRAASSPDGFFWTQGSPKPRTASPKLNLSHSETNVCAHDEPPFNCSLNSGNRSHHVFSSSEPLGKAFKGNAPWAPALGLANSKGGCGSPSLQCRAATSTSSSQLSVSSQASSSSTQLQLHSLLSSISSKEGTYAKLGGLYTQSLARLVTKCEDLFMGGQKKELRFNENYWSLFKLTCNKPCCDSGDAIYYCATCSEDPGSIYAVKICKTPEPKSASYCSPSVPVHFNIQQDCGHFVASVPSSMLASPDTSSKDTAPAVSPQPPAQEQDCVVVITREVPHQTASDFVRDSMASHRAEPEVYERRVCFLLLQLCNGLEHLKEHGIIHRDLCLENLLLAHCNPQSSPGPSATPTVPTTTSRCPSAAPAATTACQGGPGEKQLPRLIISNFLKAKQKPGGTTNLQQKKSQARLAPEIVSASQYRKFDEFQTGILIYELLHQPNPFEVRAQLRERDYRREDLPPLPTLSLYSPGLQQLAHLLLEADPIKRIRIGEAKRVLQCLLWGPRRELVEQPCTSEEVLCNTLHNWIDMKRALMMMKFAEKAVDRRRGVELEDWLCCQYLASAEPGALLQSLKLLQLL
Method: The interaction between inhibitor Z271-0326 and target NACK was characterized using surface plasmon resonance (SPR). For this purpose, GST tagged NACK was captured by a GST antibody that was previously immobilized onto the surface of the chip through standard amide coupling. The dissociation constants associated with binding of the compounds to NACK was determined using the equilibrium approach, which consists of plotting the equilibrium response (Req) as a function of concentration of the compound and fitting the data to a 1:1 binding model.
A GST capture kit (GE Healthcare) were utilized to covalently immobilize an anti-GST antibody, provided in the kit, to the sensor chip surface (CM5 chip, GE Healthcare) by following the manufacturer's instructions. Capture were performed by injecting GST-NACK (1 μg/μL) over the immobilized anti-GST antibody in Hepes buffer (10 mM Hepes, pH 7.5, 150 mM NaCl, 3 mM EDTA, 0.0005% NP-40) for 7 min at 10 μL/min. A reference flow cell was prepared by capturing GST following the procedure described above. […] Experiments were performed on a Biacore T200 instrument (GE Healthcare) at 25° C. Small molecule inhibitors binding to NACK were performed in 50 mM Tris buffer, pH 7.5, containing 150 mM NaCl, 10 mM MgCl2 and 5% DMSO (running buffer). The SPR signal arising from the sample was corrected for its respective control containing DMSO. Data visualization and analysis was performed using Biacore T200 software (GE Healthcare) and Origin 8.0 (OriginLab).

[1] = system: NACK binding to the Notch transcription complex; test: CSL-DNA affinity precipitation (CSL-DAP) assay; type: cell-based, mouse; settings: Y999F NACK and Q1024E NACK mutants (mouse NACK); FIG. 10D
Method: (§2) To determine the specificity of hit-to-lead compounds targeting NACK activity, it was evaluated whether iNACK can block NACK binding to the Notch complex by conducting CSL-DNA affinity precipitation (CSL-DAP) assay. […] In the CSL-DAP assay, 293T cells were co-transfected with N1^ICD, Maml1 and NACK. Transfections were performed using LipoJet transfection reagent (SL100468, SignaGen Laboratories) according to the manufacturer recommended protocol. After two days of transfection, cells were treated with compounds for 2 hours prior collecting the cell lysate. Cell lysates were incubated with DNA streptavidin beads. Proteins that bound to the beads were analyzed by Western blot.
(§3) Western blot was performed as described previously (See Weaver et al., Cancer Research 74, 4741-4751 (2014)). Primary antibodies were α-NACK (1:1,000; against aa209-287 of NACK and affinity purified), α-CSL (1:1,000; generated against full-length CSL and affinity purified), α-Maml1 (1:5,000; Cell Signaling Technology), α-cleaved-Notch1 (1:1,000; Cell Signaling Technology).

[2] = molecular target: T2, NACK binding to the Notch transcription complex (Mus musculus, UniProt Q571I4); test: CSL-DNA affinity precipitation (CSL-DAP) assay; type: cell-based
T2 construct: expressed in transfected cells; host or cells: 293T
T2 sequence (Q571I4 1-1373): T1 sequence (Q571I4 1-1373)
Method: as §2, §3

TNIK = TNIK (Homo sapiens, UniProt Q9UKE5); test: ADP-Glo TNIK kinase assay; type: biochemical; settings: FIG. 17C
Chain of TNIK (Q9UKE5 whole entry, species assumed): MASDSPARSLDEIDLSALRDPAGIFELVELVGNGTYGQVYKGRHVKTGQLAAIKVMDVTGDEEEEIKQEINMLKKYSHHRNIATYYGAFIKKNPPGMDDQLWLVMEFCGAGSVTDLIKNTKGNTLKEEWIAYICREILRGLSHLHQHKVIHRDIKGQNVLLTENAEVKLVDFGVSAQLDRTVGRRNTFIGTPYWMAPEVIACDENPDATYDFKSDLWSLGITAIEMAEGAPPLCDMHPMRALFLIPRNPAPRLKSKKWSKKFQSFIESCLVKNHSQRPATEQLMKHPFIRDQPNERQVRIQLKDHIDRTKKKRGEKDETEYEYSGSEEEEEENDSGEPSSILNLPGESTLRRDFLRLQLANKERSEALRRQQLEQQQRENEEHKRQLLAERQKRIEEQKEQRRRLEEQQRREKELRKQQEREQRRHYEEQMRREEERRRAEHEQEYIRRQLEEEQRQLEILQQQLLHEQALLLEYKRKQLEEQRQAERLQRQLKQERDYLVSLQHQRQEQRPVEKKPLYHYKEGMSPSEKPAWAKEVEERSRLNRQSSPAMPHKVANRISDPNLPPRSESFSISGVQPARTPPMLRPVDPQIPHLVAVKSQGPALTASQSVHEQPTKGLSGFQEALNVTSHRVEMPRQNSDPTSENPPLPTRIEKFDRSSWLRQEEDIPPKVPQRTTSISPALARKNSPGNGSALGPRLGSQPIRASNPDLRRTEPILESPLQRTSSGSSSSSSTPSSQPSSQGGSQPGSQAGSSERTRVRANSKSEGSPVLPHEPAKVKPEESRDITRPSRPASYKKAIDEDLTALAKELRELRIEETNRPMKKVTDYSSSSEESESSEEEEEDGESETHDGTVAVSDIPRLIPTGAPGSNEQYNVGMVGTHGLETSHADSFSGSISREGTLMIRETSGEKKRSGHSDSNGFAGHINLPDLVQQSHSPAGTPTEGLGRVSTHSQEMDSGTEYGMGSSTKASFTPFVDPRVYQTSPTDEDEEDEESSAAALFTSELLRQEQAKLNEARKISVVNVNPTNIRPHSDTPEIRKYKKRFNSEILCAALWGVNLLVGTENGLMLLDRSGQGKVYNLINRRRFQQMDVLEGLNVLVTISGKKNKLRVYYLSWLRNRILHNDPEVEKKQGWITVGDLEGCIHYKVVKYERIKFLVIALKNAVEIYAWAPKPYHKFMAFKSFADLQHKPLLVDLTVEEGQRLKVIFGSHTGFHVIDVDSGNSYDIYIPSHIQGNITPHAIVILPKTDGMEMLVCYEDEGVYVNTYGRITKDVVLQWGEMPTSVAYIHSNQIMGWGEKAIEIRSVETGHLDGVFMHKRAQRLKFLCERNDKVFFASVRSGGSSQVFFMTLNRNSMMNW
Method: as §1

Chain of MAP4K5 (Q9Y4K4 whole entry, species assumed): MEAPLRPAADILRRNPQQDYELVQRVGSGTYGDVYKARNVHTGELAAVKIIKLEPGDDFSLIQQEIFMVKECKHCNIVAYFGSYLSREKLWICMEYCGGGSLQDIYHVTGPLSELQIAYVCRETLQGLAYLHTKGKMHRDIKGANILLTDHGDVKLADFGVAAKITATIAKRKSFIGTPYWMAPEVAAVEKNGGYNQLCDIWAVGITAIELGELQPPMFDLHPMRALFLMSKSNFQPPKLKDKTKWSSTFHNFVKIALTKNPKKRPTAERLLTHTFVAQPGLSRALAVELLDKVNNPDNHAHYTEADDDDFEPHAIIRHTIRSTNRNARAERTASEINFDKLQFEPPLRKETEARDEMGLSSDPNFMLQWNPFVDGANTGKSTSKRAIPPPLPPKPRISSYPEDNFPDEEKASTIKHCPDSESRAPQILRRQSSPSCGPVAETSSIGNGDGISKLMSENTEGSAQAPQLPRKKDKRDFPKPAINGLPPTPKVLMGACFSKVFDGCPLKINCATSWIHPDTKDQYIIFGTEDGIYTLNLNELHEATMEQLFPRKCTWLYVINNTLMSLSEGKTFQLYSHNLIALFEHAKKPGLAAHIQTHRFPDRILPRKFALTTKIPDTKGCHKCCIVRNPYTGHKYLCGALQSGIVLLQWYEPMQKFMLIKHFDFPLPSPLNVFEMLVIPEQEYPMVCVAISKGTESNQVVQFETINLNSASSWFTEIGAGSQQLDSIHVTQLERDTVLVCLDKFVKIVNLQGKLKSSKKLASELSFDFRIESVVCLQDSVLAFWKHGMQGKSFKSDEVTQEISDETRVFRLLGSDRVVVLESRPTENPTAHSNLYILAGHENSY

SMILES: CCN(CC)C(=O)c1cnn2ccc(C3CCN(S(=O)(=O)c4ccc(NC(C)=O)cc4)CC3)cc12 [Compound Z271-0326, 5-(1-((4-acetamidophenyl)sulfonyl)piperidin-4-yl)-N,N-diethylpyrazolo[1,5-a]pyridine-3-carboxamide]
- MAP4K5 kinase inhibition (MAP4K5): only meaningfully inhibits LCK out of the three kinases
- cellular senescence (senescence-associated β-galactosidase activity) (OE33 cells): resulted in the induction of cellular senescence
- Kd (NACK): 890 ± 70 nM
- recruitment of NACK to the Notch complex [1]: insensitive to inhibition
- inhibition of NACK binding to the Notch transcription complex ([2]; 293T cells transfected with N1ICD, Maml1, NACK, 2 hours treatment, FIG. 6A): dramatically inhibit NACK binding to the NOTCH transcription complex
- recruitment of NACK to the Notch ternary complex ([2]; WT NACK, FIG. 10D): block recruitment of NACK to the Notch ternary complex
- TNIK kinase inhibition (TNIK): only meaningfully inhibits LCK out of the three kinases
